PMC10696396, “HilE represses the activity of the Salmonella virulence regulator HilD via a mechanism distinct from that of intestinal long-chain fatty acids” (The Journal of Biological Chemistry, 2023)

Tests used:
[1] = target: T1, HilD (Salmonella enterica, UniProt P0CL08); assay: biochemical; design: EYFP-HilD (full-length HilD with N-terminal EYFP tag); microscale thermophoresis, fatty acid titrated against EYFP-HilD in presence of Pluronic F-127, MST on-time 1.5 s; details: in presence of Pluronic F-127; read-out: Kd ± SD
[2] = target: T1, HilD; assay: MST; format: binding; design: EYFP-HilD (full-length HilD with N-terminal EYFP tag); details: read-out: Kd ± SD
[3] = target: T1, HilD; assay: MST; supported by nanoDSF melting temperature increase; format: binding; design: EYFP-HilD (full-length HilD with N-terminal EYFP tag); details: read-out: Kd ± SD
[4] = target: T1, HilD; assay: EMSA with hilA promoter DNA; format: biochemical; design: HilD
[5] = target: T2, HilD (Salmonella enterica, UniProt P0CL08, E102A); assay: MST; format: binding
T2 construct: HilD point mutant
T2 sequence (P0CL08 1-309 E102A): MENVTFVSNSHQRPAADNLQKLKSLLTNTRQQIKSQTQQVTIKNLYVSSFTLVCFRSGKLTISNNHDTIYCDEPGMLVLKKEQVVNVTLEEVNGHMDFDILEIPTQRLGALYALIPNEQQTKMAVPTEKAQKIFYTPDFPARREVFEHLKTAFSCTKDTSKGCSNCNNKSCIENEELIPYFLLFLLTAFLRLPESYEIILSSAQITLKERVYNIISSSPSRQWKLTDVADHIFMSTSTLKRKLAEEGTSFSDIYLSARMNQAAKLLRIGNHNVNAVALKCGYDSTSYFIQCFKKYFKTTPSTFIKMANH

[6] = target: T3, HilD (Salmonella enterica, UniProt P0CL08, R267A); assay: MST; format: binding
T3 construct: HilD point mutant
T3 sequence (P0CL08 1-309 R267A): T2 sequence (P0CL08 1-309 E102A)

[7] = target: T4, HilD (Salmonella enterica, UniProt P0CL08, E102A/K264A/R267A); assay: MST; format: binding
T4 construct: HilD triple alanine mutant
T4 sequence (P0CL08 1-309 E102A/K264A/R267A): T2 sequence (P0CL08 1-309 E102A)

[8] = target: T5, HilD (Salmonella enterica, UniProt P0CL08, K264A); assay: MST; format: binding
T5 construct: HilD point mutant
T5 sequence (P0CL08 1-309 K264A): T2 sequence (P0CL08 1-309 E102A)

[9] = target: T1, HilD; assay: MST; supported by HDX-MS, nanoDSF and BS3 cross-linking; format: binding; design: EYFP-HilD (full-length HilD with N-terminal EYFP tag); details: read-out: Kd ± SD

`CCCC/C=C\CCCCCCCC(=O)O` [Myristoleic Acid] was tested, and the Kd [1] was 567 µM.
`CCCCCCCC/C=C\CCCCCCCCCCCC(=O)O` [erucic acid] gave a Kd [2] of 12.8 ± 3.33 µM and a Kd [1] of 14.7 µM.
`CCCCCC/C=C\CCCCCCCC(=O)O` [palmitoleic acid] gave a Kd [3] of 27.6 ± 8.7 µM.
With `CCCCCCCC/C=C/CCCCCCCC(=O)O` [elaidic acid] the “EMSA with hilA promoter DNA” value [4] was “Elaidic acid appears to bind to HilD with similar affinity to oleic acid”.
Molecule `CCCCCCCC/C=C\CCCCCCCC(=O)O` [oleic acid] has a Kd [5] of 39 ± 8.26 µM, a Kd [6] of 39.4 ± 7.98 µM and a Kd [7] of 39.7 ± 7.9 µM. The Kd [8] was 27.1 ± 7.08 µM and the Kd [9] was 15 ± 3.21 µM.
For `CCCCCCCC/C=C\CCCCCCCC(=O)OC` [Methyl Oleate], the Kd [1] was 739 µM.
